For twelve compounds, IC50 results are on record in patent US7511144B2, “Reverse hydroxamic acid derivatives” (Kaken Pharmaceutical Co., Ltd., priority 2001, dated 2009).

Common to all, as to type: biochemical
One test addresses T1, TACE (Homo sapiens, UniProt P78536).
T1 construct: made in house; host or cells: mammalian cells or insect cells
The test is described as follows: TACE inhibition experiment (in vitro).

Another test concerns the target T2, Human MMP1 (Homo sapiens, UniProt P03956).
T2 construct: purchased Calbiochem 444208
T2 sequence (P03956 100-469): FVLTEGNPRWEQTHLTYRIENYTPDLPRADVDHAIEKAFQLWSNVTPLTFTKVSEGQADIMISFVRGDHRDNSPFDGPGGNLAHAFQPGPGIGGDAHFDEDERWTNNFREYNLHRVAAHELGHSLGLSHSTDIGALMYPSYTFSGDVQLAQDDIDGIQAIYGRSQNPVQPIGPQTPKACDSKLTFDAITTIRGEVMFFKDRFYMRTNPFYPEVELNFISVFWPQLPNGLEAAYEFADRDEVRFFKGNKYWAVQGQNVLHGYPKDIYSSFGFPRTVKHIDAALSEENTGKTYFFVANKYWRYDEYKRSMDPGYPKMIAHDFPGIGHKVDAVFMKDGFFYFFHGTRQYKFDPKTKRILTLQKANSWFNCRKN
The test is described as follows: MMP1 inhibition experiment. As to conditions: read-out: IC50 value MMP-1.

A further test concerns the target T3, Human MMP2 (Homo sapiens, UniProt P08253).
T3 construct: purchased Calbiochem 444213
T3 sequence (P08253 110-660): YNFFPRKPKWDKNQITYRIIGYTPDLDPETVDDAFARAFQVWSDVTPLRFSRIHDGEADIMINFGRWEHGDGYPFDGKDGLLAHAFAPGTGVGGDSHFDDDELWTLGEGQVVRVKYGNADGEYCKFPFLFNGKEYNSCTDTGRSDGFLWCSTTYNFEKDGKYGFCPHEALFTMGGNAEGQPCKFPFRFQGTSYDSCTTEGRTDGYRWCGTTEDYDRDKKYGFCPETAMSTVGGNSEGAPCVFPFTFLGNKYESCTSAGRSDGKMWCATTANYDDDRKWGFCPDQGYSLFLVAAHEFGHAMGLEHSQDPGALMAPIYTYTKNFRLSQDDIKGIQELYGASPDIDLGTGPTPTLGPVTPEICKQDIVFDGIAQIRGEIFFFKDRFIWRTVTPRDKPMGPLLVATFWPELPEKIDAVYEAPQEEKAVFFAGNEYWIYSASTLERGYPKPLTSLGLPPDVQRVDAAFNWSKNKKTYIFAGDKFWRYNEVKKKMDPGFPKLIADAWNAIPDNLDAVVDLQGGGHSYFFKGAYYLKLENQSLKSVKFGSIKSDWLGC
The test is described as follows: MMP2 inhibition experiment. As to conditions: concentration required for 50% inhibition of enzyme activity; read-out: IC50 value MMP-2.

The next test has as its target T4, Human MMP3 (Homo sapiens, UniProt P08254).
T4 construct: purchased Calbiochem 444217
The test is described as follows: MMP3 inhibition experiment. As to conditions: concentration required for 50% inhibition of enzyme activity; read-out: IC50 value MMP-3. The method in brief:
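Recombinant human MMP3 (5 ng) mixed with fluorogenic peptide NFF-3 (20 μM stock solution) and incubated 5 hours at 37° C; cleavage followed by fluorescence of the quenched substrate.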

In another test the target is T5, Human MMP8 (Homo sapiens, UniProt P22894).
T5 construct: purchased Calbiochem 444229
T5 sequence (P22894 101-467): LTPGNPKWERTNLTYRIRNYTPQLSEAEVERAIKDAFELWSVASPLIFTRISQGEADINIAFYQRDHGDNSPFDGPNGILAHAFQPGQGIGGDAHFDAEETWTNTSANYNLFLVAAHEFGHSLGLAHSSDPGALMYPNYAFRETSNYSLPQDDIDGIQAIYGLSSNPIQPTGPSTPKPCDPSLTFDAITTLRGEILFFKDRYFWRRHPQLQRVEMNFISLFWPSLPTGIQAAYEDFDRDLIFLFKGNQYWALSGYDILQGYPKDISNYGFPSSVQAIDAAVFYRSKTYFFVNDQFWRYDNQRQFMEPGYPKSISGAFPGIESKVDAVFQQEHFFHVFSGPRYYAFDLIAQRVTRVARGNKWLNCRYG
The test is described as follows: MMP8 inhibition experiment. As to conditions: concentration required for 50% inhibition of enzyme activity; read-out: IC50 value MMP-8. As for the experimental part: MMP inhibition experiment may be carried out using a fluorescent synthetic substrate according to, for example, the methods of Bickett et al. (D. Mark Bickett et al., Anal. Biochem., 1993, 212, 58-64) and Nagase et al. (H. Nagase et al., J. Biol. Chem., 1994, 269, 20952-20957). The methods of inhibition experiments carried out for various MMPs are described below.
Human MMP8 (Calbiochem #444229) in amount of 90 μL (30 ng) was activated by mixing with 10 μL of 10 mM APMA, followed by reaction for 1 hour at 37° C. This enzyme solution in amount of 10 μL was diluted to 90 μL with the assay buffer A, which was added to 90 μL of […] fluorescent substrate (MOCAc-Pro-Leu-Gly-Leu-A2pr(Dnp)-Ala-Arg-NH2, Peptide Institute, Inc., #3163-v) prepared in the assay buffer B, followed by reaction for 5 hours at 37° C.

The next test concerns the target T6, Human MMP9 (Homo sapiens, UniProt P14780).
T6 construct: purchased Calbiochem 444231
In words: MMP9 inhibition experiment. As to conditions: read-out: IC50 value MMP-9.

The next test has as its target T7, Human MMP13 (Homo sapiens, UniProt P45452).
T7 construct: purchased Chemicon CC068
In words: MMP13 inhibition experiment. As to conditions: concentration required for 50% inhibition of enzyme activity; read-out: IC50 value MMP-13.

The next test addresses T8, Human MMP14 (Homo sapiens, UniProt P50281).
T8 construct: purchased Biogenesis or Calbiochem 5980-1461 or 475935
In words: MMP14 inhibition experiment. As to conditions: concentration required for 50% inhibition of enzyme activity; read-out: IC50 value MMP-14. In short, it runs like this: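 Fluorescence assay: substrate Dnp-Pro-Cha-Gly-Cys(Me)-His-Ala-Lys(Nma)-NH2 (20 μM before equal-volume mixing) incubated at 37° C for 5 hours with 4 ng human MMP14.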

In another test the target is T9, Human MMP17 (Homo sapiens, UniProt Q9ULZ9).
T9 construct: purchased Calbiochem 475940
T9 sequence (Q9ULZ9 126-300 limits assumed): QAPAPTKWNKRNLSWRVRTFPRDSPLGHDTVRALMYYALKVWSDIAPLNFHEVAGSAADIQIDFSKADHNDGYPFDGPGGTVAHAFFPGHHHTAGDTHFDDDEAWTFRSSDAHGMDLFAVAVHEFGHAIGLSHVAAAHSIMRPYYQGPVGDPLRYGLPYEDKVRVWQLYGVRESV
In words: MMP17 inhibition test. As to conditions: concentration required for 50% inhibition of enzyme activity; read-out: IC50 value MMP-17.

T4 sequence (P08254 100-272 limits assumed): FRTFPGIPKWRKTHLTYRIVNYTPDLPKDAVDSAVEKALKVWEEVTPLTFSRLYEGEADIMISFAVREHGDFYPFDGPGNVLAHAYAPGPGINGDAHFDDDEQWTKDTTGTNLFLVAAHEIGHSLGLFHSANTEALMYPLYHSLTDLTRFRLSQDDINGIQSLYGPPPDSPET
T6 sequence (P14780 107-707 limits assumed): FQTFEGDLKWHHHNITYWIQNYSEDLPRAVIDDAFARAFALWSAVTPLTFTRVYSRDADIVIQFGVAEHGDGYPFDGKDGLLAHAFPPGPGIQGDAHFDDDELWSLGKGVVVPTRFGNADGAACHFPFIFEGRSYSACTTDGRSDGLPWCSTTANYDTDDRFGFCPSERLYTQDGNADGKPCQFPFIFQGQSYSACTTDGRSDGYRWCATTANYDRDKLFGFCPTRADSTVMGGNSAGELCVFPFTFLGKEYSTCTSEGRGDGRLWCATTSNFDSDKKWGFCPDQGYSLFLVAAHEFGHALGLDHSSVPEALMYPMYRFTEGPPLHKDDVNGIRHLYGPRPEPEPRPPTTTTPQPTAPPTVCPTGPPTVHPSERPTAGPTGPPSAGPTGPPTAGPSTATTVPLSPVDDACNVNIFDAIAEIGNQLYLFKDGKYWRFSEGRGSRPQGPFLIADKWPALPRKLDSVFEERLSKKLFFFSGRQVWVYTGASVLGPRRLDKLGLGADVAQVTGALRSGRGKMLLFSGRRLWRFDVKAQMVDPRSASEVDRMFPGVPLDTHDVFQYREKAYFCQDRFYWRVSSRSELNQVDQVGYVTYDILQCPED
T1 sequence (P78536 215-824): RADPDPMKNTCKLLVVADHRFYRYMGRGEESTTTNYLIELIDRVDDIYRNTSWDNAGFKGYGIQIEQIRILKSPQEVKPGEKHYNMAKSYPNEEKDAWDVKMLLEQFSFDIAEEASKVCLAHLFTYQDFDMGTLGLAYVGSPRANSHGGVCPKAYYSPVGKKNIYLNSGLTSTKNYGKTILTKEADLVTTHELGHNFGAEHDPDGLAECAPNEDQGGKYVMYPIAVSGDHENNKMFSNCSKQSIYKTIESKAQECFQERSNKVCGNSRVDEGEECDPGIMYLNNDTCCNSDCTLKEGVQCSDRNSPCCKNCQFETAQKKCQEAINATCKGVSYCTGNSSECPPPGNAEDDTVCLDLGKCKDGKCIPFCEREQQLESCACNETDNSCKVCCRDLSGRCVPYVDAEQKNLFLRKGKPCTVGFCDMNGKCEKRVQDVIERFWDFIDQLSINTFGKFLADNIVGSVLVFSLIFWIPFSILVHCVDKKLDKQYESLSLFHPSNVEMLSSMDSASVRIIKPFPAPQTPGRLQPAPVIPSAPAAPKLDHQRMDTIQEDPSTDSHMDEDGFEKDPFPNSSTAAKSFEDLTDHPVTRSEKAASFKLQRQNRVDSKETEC
Method for Human MMP13: Human MMP13 (Chemicon #CC068) in amount of 90 μL (200 ng) was activated by mixing with 10 μL of 10 mM APMA, followed by reaction for 1 hour at 37° C. This enzyme solution in amount of 0.6 μL was diluted to 90 μL with the assay buffer A, which was added to 90 μL of 20 μM fluorescent substrate (Dnp-Pro-Cha-Gly-Cys(Me)-His-Ala-Lys(Nma)-NH2) prepared in the assay buffer B, followed by reaction for 4 hours at 37° C.
Method for Human MMP2: This enzyme solution in amount of 10 μL was diluted to 90 μL with the assay buffer A, which was added to 90 μL of 20 μM fluorescent substrate (MOCAc((7-methoxycoumarin-4-yl)acetyl)-Pro-Leu-Gly-Leu-A2pr(Dnp)-Ala-Arg-NH2, Peptide Institute, Inc., #3163-v) prepared in the assay buffer B, followed by reaction for 5 hours at 37° C.
Method for Human MMP9: This enzyme solution in amount of 1 μL was diluted to 90 μL with the assay buffer A, which was added to 90 μL of 20 μM fluorescent substrate (Dnp-Pro-Cha-Gly-Cys(Me)-His-Ala-Lys(Nma)-NH2) prepared in the assay buffer B, followed by reaction for 4 hours at 37° C.
Method for TACE: TACE inhibition experiments were conducted using TACE obtained as above as an enzyme and by measuring TACE activity in the presence or absence of a test substance using Nma (N-metylanthranilic acid)-[sequence]Dnp(dinitrophenyl)-D-Arg-NH2 being a fluorescent synthetic substrate which contains the sequence of cleavage site of membrane-bound TNF by TACE, as a substrate.
More specifically, 14 units of an enzyme solution (1 unit is defined as the amount of enzyme which degrades 1 pmol of the substrate per minute at 25° C.) which was prepared in 90 μL of assay buffer A (50 mM Tris-HCl buffer (pH 7.5) containing 200 mM sodium chloride, 5 mM calcium chloride, 10 μM zinc sulfate, 0.004% sodium azide and 2 mg/mL bovine serum albumin) and 90 μL of 20 μM fluorescent synthetic substrate prepared in assay buffer B (50 mM Tris-HCl buffer (pH 7.5) containing 200 mM sodium chloride, 5 mM calcium chloride, 10 μM zinc sulfate, 0.004% sodium azide and 0.05% PLURONIC F-68) are mixed and reacted for 2 hours at 37° C.

A word on the IC50: it is the concentration that gives 50% inhibition. `Cc1ccccc1C(CS(=O)(=O)c1ccc(OCc2ccc3ccccc3n2)cc1)N(O)C=O` (stereo not drawn) [Example I-82]: the IC50 against TACE was 3.5 µM; at Human MMP1, 92 µM; at Human MMP2 it was 4.2 µM; at Human MMP3, 50 µM; at Human MMP8, above 100 µM; on Human MMP9, 32 µM. Further, the figures for the IC50 on Human MMP13, on Human MMP14 and on Human MMP17 were 26 µM, 38 µM and 30 µM, respectively.
For `Cc1cc(COc2ccc(S(=O)(=O)CC(N(O)C=O)C3(C)CCC4(CC3)OCCO4)cc2)c2ccccc2n1` (stereo not drawn) [Example I-47], the IC50 against TACE was 0.03 µM; on Human MMP1 it was above 100 µM; at Human MMP2, 22 µM; at Human MMP3, 0.6 µM; on Human MMP8, 15 µM; at Human MMP9, above 100 µM. In addition, the IC50 on Human MMP13 was 18 µM; on Human MMP14 it was 60 µM; at Human MMP17, 0.4 µM.
On to `Cc1cc(COc2ccc(S(=O)(=O)CC(C=C3CCN(C(=O)OC(C)(C)C)CC3)N(O)C=O)cc2)c2ccccc2n1` (stereo not drawn) [Example I-18], for which the IC50 against TACE amounted to 0.004 µM; on Human MMP1 it was 65 µM; on Human MMP2, 3.3 µM; on Human MMP3 it was 0.65 µM; at Human MMP8 it was 24.5 µM; on Human MMP9, 10 µM. For the same compound, the IC50 is 3.5 µM on Human MMP13, 20 µM at Human MMP14 and 0.6 µM on Human MMP17.
`CCC(CC)C(=O)N1CCC(CC(CS(=O)(=O)c2ccc(OCc3cc(C)nc4ccccc34)cc2)N(O)C=O)CC1` (stereo not drawn) [Example I-51]: the IC50 at TACE was determined as 0.01 µM; at Human MMP1, 60 µM; on Human MMP2 it was 3.2 µM; on Human MMP3, 0.35 µM; on Human MMP8, 7.6 µM; on Human MMP9, 37 µM. Moreover, the IC50 on Human MMP13 worked out at 5.8 µM; at Human MMP14 it was 40 µM; at Human MMP17 it was 0.4 µM.
`CCC(CC)C(=O)N1CCC(=CC(CS(=O)(=O)c2ccc(OCc3cc(C)nc4ccccc34)cc2)N(O)C=O)CC1` (stereo not drawn) [Example I-42]: the IC50 on TACE was 0.0029 µM; on Human MMP1, 70 µM; at Human MMP2, 18 µM; at Human MMP3 it was 2.2 µM; at Human MMP8, 61 µM; at Human MMP9 it was 52 µM. In addition, the IC50 is 20 µM at Human MMP13, 38 µM on Human MMP14 and 2.3 µM at Human MMP17.
Regarding `CC(=O)N1CCC(C(CS(=O)(=O)c2ccc(OCc3cc(C)nc4ccccc34)cc2)N(O)C=O)CC1` (stereo not drawn) [Example I-73], the IC50 against TACE is 0.014 µM; on Human MMP1 it was above 100 µM; on Human MMP2 it was 26 µM; at Human MMP3, 1.7 µM; at Human MMP8, 18 µM; on Human MMP9, above 100 µM. The figures for the IC50 at Human MMP13, at Human MMP14 and on Human MMP17 were 50 µM, above 100 µM and 0.66 µM, respectively.
On to `O=CN(O)C(C=C1CCC(=NO)CC1)CS(=O)(=O)c1ccc(OCc2ccc3ccccc3n2)cc1` (stereo not drawn) [Example I-86], for which the IC50 is 0.42 µM against TACE; above 100 µM on Human MMP1; 5.8 µM at Human MMP2; 61 µM at Human MMP3; above 100 µM at Human MMP8; 70 µM at Human MMP9. Also, the IC50 at Human MMP13 is 22 µM; on Human MMP14, 70 µM; at Human MMP17, 31 µM.
Take `Cc1cccc(C(CS(=O)(=O)c2ccc(OCc3cc(C)nc4ccc(F)cc34)cc2)N(O)C=O)n1` (stereo not drawn) [Example I-149]: the IC50 at TACE was 0.03 µM; at Human MMP1, above 100 µM; at Human MMP2 it was 95 µM; on Human MMP3, 26 µM; at Human MMP8 it was above 100 µM; on Human MMP9, above 100 µM. For the same compound, the IC50 at Human MMP13 amounted to 35 µM; at Human MMP14 it was 90 µM; at Human MMP17 it was 23 µM.
As for `CCC(CC)C(=O)N1CCC(C(CS(=O)(=O)c2ccc(OCc3cc(C)nc4ccccc34)cc2)N(O)C=O)CC1` (stereo not drawn) [Example I-132], the IC50 against TACE is 0.023 µM; on Human MMP1 it was 53 µM; at Human MMP2, 2.2 µM; on Human MMP3, 0.21 µM; at Human MMP8, 8 µM; at Human MMP9 it was 40 µM. For the same compound, the IC50 is 2.2 µM at Human MMP13, 16 µM on Human MMP14 and 0.085 µM at Human MMP17.
Regarding `Cc1ccc(C(CS(=O)(=O)c2ccc(OCc3cc(C)nc4ccc(F)cc34)cc2)N(O)C=O)cn1` (stereo not drawn) [Example I-81], the IC50 against TACE is 0.0051 µM; on Human MMP1, above 100 µM; on Human MMP2 it was 11 µM; on Human MMP3, 2.2 µM; at Human MMP8, 20 µM; at Human MMP9 it was above 100 µM. For the same compound, the values for the IC50 on Human MMP13, at Human MMP14 and on Human MMP17 were 17 µM, 64 µM and 8 µM, respectively.
Turning to `Cc1cc(COc2ccc(S(=O)(=O)CC(c3ccccc3C)N(O)C=O)cc2)c2cccc(F)c2n1` (stereo not drawn) [Example I-124, N-{2-[4-(8-fluoro-2-methylquinolin-4-ylmethoxy)benzenesulfonyl]-1-o-tolylethyl}-N-hydroxyformamide], the IC50 stood at 0.006 µM on TACE; 34 µM at Human MMP1; 1.9 µM at Human MMP2; 4.8 µM on Human MMP3; 1.9 µM at Human MMP8; 24 µM on Human MMP9. In addition, the results for the IC50 on Human MMP13, on Human MMP14 and at Human MMP17 were 5.8 µM, 7 µM and 4.8 µM, respectively.
In the case of `Cc1cccc(CCC(CS(=O)(=O)c2ccc(OCc3cc(C)nc4ccccc34)cc2)N(O)C=O)n1` (stereo not drawn) [Example I-129], the IC50 against TACE was 0.012 µM; at Human MMP1, above 100 µM; at Human MMP2 it was 12 µM; at Human MMP3, 3.1 µM; on Human MMP8 it was 33 µM; at Human MMP9 it was above 100 µM. Further, the IC50 at Human MMP13 amounted to 17 µM; at Human MMP14, 50 µM; on Human MMP17 it was 3.4 µM.
